Measurements reported in ChEMBL document CHEMBL5506069, “A Unique Hybridization Route to Access Hydrazylnaphthalimidols as Novel Structural Scaffolds of Multitargeting Broad-Spectrum Antifungal Candidates” (J Med Chem, 2024).
≈ marks a conversion by molar mass, not a printed value. Calls of active or inactive are those of the source. The calls are words filed in the database; no cut-off is given here.

Legend:
Candida albicans [1] = assay: Antifungal activity against Candida albicans assessed as inhibition of fungal growth incubated for 24 hrs by CLSI based microbroth dilution method; assay type: functional
Candida albicans [2] = assay: Antifungal activity against Candida albicans ATCC 90023 assessed as inhibition of fungal growth incubated for 24 hrs by CLSI based microbroth dilution method; assay type: functional
Aspergillus fumigatus = assay: Antifungal activity against Aspergillus fumigatus assessed as inhibition of fungal growth incubated for 24 hrs by CLSI based microbroth dilution method; assay type: functional
Candida tropicalis = assay: Antifungal activity against Candida tropicalis assessed as inhibition of fungal growth incubated for 24 hrs by CLSI based microbroth dilution method; assay type: functional
Candida parapsilosis = assay: Antifungal activity against Candida parapsilosis ATCC 22019 assessed as inhibition of fungal growth incubated for 24 hrs by CLSI based microbroth dilution method; assay type: functional; conditions: Lodderomyces parapsilosis
Candida albicans [3] = assay: Potency index, ratio of fluconazole MIC to test compound MIC for antifungal activity against Candida albicans assessed as inhibition of fungal growth incubated for 24 hrs by CLSI based microbroth dilution method; assay type: functional
Candida albicans [4] = assay: Antifungal activity against Candida albicans at 4 times MIC measured within 10 hrs by time kill assay; assay type: functional, organism-based
Candida albicans [5] = assay: Antifungal activity against Candida albicans measured after at 14 passages; assay type: functional, organism-based
L02 = assay: Cytotoxicity against human L02 cells assessed as effect on cell growth incubated for 24 to 48 hrs by MTT assay; assay type: toxicity, cell-based; conditions: time 24-48 hrs
[6] = Hemolytic activity in RBC (unknown origin) assessed as hemolysis rate 128 times MIC measured for 6 hrs by double dilution method; assay type: toxicity, cell-based, Erythrocyte; conditions: red blood cells (erythrocytes), read-out: Activity
Erythrocyte [7] = assay: Hemolytic activity in RBC (unknown origin) assessed as appearance of smooth surface at 128 times MIC measured for 6 hrs by microscopic analysis; assay type: toxicity, cell-based
Erythrocyte [8] = assay: Hemolytic activity in RBC (unknown origin) assessed as appearance of round surface at 128 times MIC measured for 6 hrs by microscopic analysis; assay type: toxicity, cell-based
Albumin [9] = target: T1, Albumin (Homo sapiens, UniProt P02768); assay: Binding affinity to human serum albumin assessed as Stem-Volmer quenching constant at 310K at pH 7.4 by fluorescence based analysis
Albumin [10] = target: T1, Albumin; assay: Binding affinity to human serum albumin assessed as Stem-Volmer quenching constant at 298K at pH 7.4 by fluorescence based analysis
Albumin [11] = target: T1, Albumin; assay: Binding affinity to human serum albumin assessed as Stem-Volmer quenching constant at 286K at pH 7.4 by fluorescence based analysis
Cell membrane [12] = assay: Induction of cell membrane damage in Candida albicans assessed as increase in fluorescent intensity at 0.5 to 8 times MIC measured for 6 hrs by PI staining based spectrofluorimeter analysis; assay type: subcellular
Cell membrane [13] = assay: Induction of cell membrane damage in Candida albicans assessed as increase in red fluorescent intensity at 4 to 8 times MIC measured for 6 hrs by PI staining based spectrofluorimeter analysis
Cell membrane [14] = assay: Induction of cytoplasmic membrane depolarization in Candida albicans assessed as increase in fluorescence intensity at 4 times MIC measured for 30 mins by DiSC3-5 dye based fluorescence method; assay type: cell membranes
Cell membrane [15] = assay: Induction of cell membrane potential loss in Candida albicans assessed as change in fluorescence intensity at 4 times MIC measured for 30 mins by DiSC3-5 dye based fluorescence method; assay type: subcellular
Candida albicans [16] = assay: Induction of morphological changes in Candida albicans assessed as appearance of oval shape by SEM analysis; assay type: functional, organism-based
Candida albicans [17] = assay: Induction of morphological changes in Candida albicans assessed as appearance of regular continuous surface by SEM analysis; assay type: functional, organism-based
Candida albicans [18] = assay: Induction of morphological changes in Candida albicans assessed as deformation of cell shape at 2 times MIC measured after 6 hrs by SEM analysis; assay type: functional, organism-based
Candida albicans [19] = assay: Induction of morphological changes in Candida albicans assessed as appearance of dented surface at 2 times MIC measured after 6 hrs by SEM analysis; assay type: functional, organism-based
Candida albicans [20] = assay: Induction of morphological changes in Candida albicans assessed as appearance of atrophied surface at 2 times MIC measured after 6 hrs by SEM analysis; assay type: functional, organism-based
Candida albicans [21] = assay: Antifungal activity against Candida albicans assessed as reduction in metabolic activity by measuring fluorescence intensity at 0.5 to 8 times MIC measured for 6 hrs by alamar blue staining based analysis; assay type: functional, organism-based
Candida albicans [22] = assay: Antifungal activity against Candida albicans assessed as reduction in metabolic activity by measuring fluorescence intensity measured for 6 hrs by alamar blue staining based analysis; assay type: functional, organism-based
Candida albicans [23] = assay: Antifungal activity against Candida albicans assessed as reduction in LDH activity by measuring fluorescence intensity at 8 times MIC measured for 6 hrs by alamar blue staining based analysis; assay type: functional; parameters: scale not given: the % may be the effect or the level left
Candida albicans [24] = assay: Antifungal activity against Candida albicans assessed as reduction in LDH activity by measuring fluorescence intensity measured for 6 hrs by alamar blue staining based analysis; assay type: functional, organism-based
Candida albicans [25] = assay: Induction of intracellular ROS production in Candida albicans assessed as increase in fluorescence intensity incubated for 6 hrs by DCFH-DA staining based analysis; assay type: functional, organism-based
Candida albicans [26] = assay: Induction of intracellular ROS production in Candida albicans assessed as fold increase in fluorescence intensity at 1 times MIC incubated for 6 hrs by DCFH-DA staining based analysis; assay type: functional
Candida albicans [27] = assay: Induction of intracellular ROS production in Candida albicans assessed as fold increase in fluorescence intensity at 4 to 128 times MIC incubated for 6 hrs by DCFH-DA staining based analysis; assay type: functional, organism-based
Candida albicans [28] = assay: Induction of intracellular ROS production in Candida albicans assessed as increase in green fluorescence intensity at 4 times MIC incubated for 6 hrs by fluorescence microscopic analysis; assay type: functional, organism-based
Candida albicans [29] = assay: Antioxidant activity in Candida albicans assessed as decrease in GSH content measured at 5 mins by ellman method; assay type: functional; parameters: scale not given: the % may be the effect or the level left
Candida albicans [30] = assay: Antioxidant activity in Candida albicans assessed as decrease in GSH content at 2 times MIC measured at 30 mins by ellman method; assay type: functional; parameters: scale not given: the % may be the effect or the level left; conditions: 0.5 h
Candida albicans [31] = assay: Antioxidant activity in Candida albicans assessed as decrease in GSH content at 1 times MIC measured at 30 mins by ellman method; assay type: functional; parameters: scale not given: the % may be the effect or the level left; conditions: 0.5 h
Candida albicans [32] = assay: […] in Candida albicans assessed as decrease in pink fluorescence by resazurin staining based analysis; assay type: functional, organism-based
Calf thymus DNA [33] = assay: Binding affinity to calf thymus DNA assessed as change in red shift by measuring hypochromism upto 7 mM by UV-Vis absorption spectra analysis; assay type: nucleic-acid assay; conditions: Bos taurus
Calf thymus DNA [34] = assay: Binding affinity to calf thymus DNA assessed as DNA-compound complex formation by measuring hyperchromism upto 7 mM by UV-Vis absorption spectra analysis; assay type: nucleic-acid assay; conditions: Bos taurus
Calf thymus DNA [35] = assay: Binding affinity to calf thymus DNA assessed as binding constant by UV-Vis absorption spectra analysis; assay type: nucleic-acid assay; conditions: Bos taurus
Calf thymus DNA [36] = assay: Binding affinity to calf thymus DNA assessed as decrease in fluorescence intensity by acridine orange dye based by UV-Vis absorption spectra analysis; assay type: nucleic-acid assay; conditions: Bos taurus
Calf thymus DNA [37] = assay: Induction of DNA cleavage in calf thymus DNA assessed as change in DNA band formation at 0.05 to 0.5 mM by agarose gel electrophoresis analysis; assay type: nucleic-acid assay; conditions: Bos taurus; dose 0.05-0.5 mM
Calf thymus DNA [38] = assay: Induction of DNA cleavage in calf thymus DNA at 0.05 to 0.5 mM in presence of Cu2+ by agarose gel electrophoresis analysis; assay type: nucleic-acid assay; conditions: Bos taurus; dose 0.05-0.5 mM
Calf thymus DNA [39] = assay: Induction of DNA cleavage in calf thymus DNA at 0.05 to 0.5 mM in presence of Zn2+ by agarose gel electrophoresis analysis; assay type: nucleic-acid assay; conditions: Bos taurus; dose 0.05-0.5 mM
Calf thymus DNA [40] = assay: Induction of DNA cleavage in calf thymus DNA at 0.5 mM in presence of Zn2+ by agarose gel electrophoresis analysis; assay type: nucleic-acid assay; conditions: Bos taurus
Calf thymus DNA [41] = assay: Induction of DNA cleavage in calf thymus DNA at 0.5 mM in presence of Cu2+ by agarose gel electrophoresis analysis; assay type: nucleic-acid assay; conditions: Bos taurus
Candida albicans [42] = assay: Antibiofilm activity against Candida albicans assessed as reduction in residual biomass measured for 24 hrs by crystal violet staining based; assay type: functional, organism-based; conditions: dose <= 8.0 µg/ml
Candida albicans [43] = assay: Antibiofilm activity against Candida albicans assessed as inhibition of biofilm formation at 0.5 to 8 microg/ml measured for 24 hrs by crystal violet staining based; assay type: functional; conditions: dose 0.5-8 µg/ml, at 0.5 to 8 µg/mL

T1 sequence (P02768 whole entry): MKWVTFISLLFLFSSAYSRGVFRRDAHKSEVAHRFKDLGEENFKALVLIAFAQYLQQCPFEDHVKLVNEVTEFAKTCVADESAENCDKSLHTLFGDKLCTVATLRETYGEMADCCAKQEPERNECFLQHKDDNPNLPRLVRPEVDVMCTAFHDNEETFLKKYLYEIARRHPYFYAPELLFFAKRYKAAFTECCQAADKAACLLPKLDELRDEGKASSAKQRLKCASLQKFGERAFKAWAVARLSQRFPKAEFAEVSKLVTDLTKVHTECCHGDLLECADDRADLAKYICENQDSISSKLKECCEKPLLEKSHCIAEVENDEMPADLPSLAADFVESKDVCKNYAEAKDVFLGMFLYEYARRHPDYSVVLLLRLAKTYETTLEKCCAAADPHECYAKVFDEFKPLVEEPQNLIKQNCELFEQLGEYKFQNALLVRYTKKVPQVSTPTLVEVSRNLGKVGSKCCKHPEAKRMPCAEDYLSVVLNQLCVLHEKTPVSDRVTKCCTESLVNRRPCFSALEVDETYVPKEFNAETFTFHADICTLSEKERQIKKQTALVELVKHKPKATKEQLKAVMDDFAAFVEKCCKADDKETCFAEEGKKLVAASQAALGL

Compound `O=C1c2cccc3c(N/N=C/c4ccc([N+](=O)[O-])o4)ccc(c23)C(=O)N1CCO` has an MIC (Candida albicans [1]) of 1 µM (≈ 0.394 µg/mL), an MIC (Candida albicans [2]) of 2 µM (≈ 0.789 µg/mL) and an MIC (Aspergillus fumigatus) of 4 µM (≈ 1.58 µg/mL). The MIC (Candida tropicalis) was 2 µM (≈ 0.789 µg/mL), the MIC (Candida parapsilosis) was 4 µM (≈ 1.58 µg/mL) and the Ratio (Candida albicans [3]) was 13. The Activity (Candida albicans [4]) was “Active”, the Activity (Candida albicans [5]) was “Active” and the Activity (L02) was “Non-Toxic”. For the same compound, the hemolysis at 6 h, 128 times MIC [6] was < 5%, the Activity (Erythrocyte [7]) was “Non-Toxic” and the Activity (Erythrocyte [8]) was “Non-Toxic”. For the same compound, the KSV (Albumin [9]) was 8.82 10^4L/mol, the KSV (Albumin [10]) was 9.34 10^4L/mol and the KSV (Albumin [11]) was 12.6 10^4L/mol. For the same compound, the Activity (Cell membrane [12]) was “Active”, the Activity (Cell membrane [13]) was “Active” and the Activity (Cell membrane [14]) was “inactive”. For the same compound, the Activity (Cell membrane [15]) was “inactive”, the Activity (Candida albicans [16]) was “Active” and the Activity (Candida albicans [17]) was “Active”. The Activity (Candida albicans [18]) was “Active”, the Activity (Candida albicans [19]) was “Active” and the Activity (Candida albicans [20]) was “Active”. The Activity (Candida albicans [21]) was “Active”, the Activity (Candida albicans [22]) was “Dose-Dependent Effect” and the Activity (Candida albicans [23]) was <55%. The Activity (Candida albicans [24]) was “Dose-Dependent Effect”, the Activity (Candida albicans [25]) was “Dose-Dependent Effect” and the “fold change (FC)” value (Candida albicans [26]) was 2.5. For the same compound, the Activity (Candida albicans [27]) was “Active”, the Activity (Candida albicans [28]) was “Active” and the Activity (Candida albicans [29]) was 70%. For the same compound, the Activity (Candida albicans [30]) was 40%, the Activity (Candida albicans [31]) was 50% and the Activity (Candida albicans [32]) was “Dose-Dependent Effect”. The Activity (Calf thymus DNA [33]) was “Active”, the Activity (Calf thymus DNA [34]) was “Active” and the K (Calf thymus DNA [35]) was 2.4 10^4L/mol. For the same compound, the Activity (Calf thymus DNA [36]) was “Active”, the Activity (Calf thymus DNA [37]) was “inactive” and the Activity (Calf thymus DNA [38]) was “inactive”. For the same compound, the Activity (Calf thymus DNA [39]) was “inactive”, the Activity (Calf thymus DNA [40]) was “inactive” and the Activity (Calf thymus DNA [41]) was “inactive”. For the same compound, the Activity (Candida albicans [42]) was “Dose-Dependent Effect” and the “inhibition (INH)” value (Candida albicans [43]) was 22%.
